Reference: article PMC4663080 (Journal of enzyme inhibition and medicinal chemistry, 2010)
pKi: −log10 of the molar value.

Assays:
[1] = target: T1, Electrophorus electricus AChE (Electrophorus electricus, UniProt O42275); format: biochemical
[2] = target: T1, Electrophorus electricus AChE; experiment: Steady-state enzyme kinetics of AChE in the presence of nantenine; format: biochemical
[3] = target: AChE (Electrophorus electricus, UniProt O42275); experiment: TLC anticholinesterase bioautographic assay; format: biochemical; details: compared with galanthamine (1)
[4] = tested on: AChE; details: rat synaptosomal membrane as enzyme source; cited from earlier work

T1 sequence (O42275 24-633): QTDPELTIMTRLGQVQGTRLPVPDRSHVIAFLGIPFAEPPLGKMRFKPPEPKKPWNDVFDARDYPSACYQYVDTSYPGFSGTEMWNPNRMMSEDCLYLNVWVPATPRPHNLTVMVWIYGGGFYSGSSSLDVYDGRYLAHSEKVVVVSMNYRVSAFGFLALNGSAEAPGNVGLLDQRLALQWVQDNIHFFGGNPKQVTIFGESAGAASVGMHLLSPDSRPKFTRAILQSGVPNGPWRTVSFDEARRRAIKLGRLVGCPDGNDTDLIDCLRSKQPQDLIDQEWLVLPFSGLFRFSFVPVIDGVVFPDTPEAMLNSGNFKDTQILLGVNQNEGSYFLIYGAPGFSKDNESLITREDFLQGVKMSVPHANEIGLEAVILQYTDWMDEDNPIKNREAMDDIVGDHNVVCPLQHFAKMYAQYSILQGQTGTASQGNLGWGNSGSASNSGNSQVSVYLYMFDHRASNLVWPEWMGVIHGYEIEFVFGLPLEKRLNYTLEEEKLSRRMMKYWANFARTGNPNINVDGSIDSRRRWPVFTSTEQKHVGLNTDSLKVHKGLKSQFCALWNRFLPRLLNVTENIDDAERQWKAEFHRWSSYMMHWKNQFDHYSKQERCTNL
AChE (Electrophorus electricus, UniProt O42275), sequence (O42275 24-633): as above

Row | SMILES | fold less active than nantenine (AChE inhibition) [1] | pKi [2] | mode of inhibition ([2]; Lineweaver-Burk plot) | activity in TLC anticholinesterase bioautographic assay [3] | activity in AChE assay [4]
1 | COc1cc2c(c(-c3ccc4c(c3)OCO4)c1OC)CN(C)CC2 [Compound 15a, 8-(benzo[d][1,3]dioxol-5-yl)-6,7-dimethoxy-2-methyl-1,2,3,4-tetrahydroisoquinoline] | approximately two-fold | – | – | – | –
2 | COc1cc2c(c(-c3ccc4c(c3)OCO4)c1OC)C(C)N(C)CC2 (stereo not drawn) [Compound 15b, 8-(benzo[d][1,3]dioxol-5-yl)-6,7-dimethoxy-1,2-dimethyl-1,2,3,4-tetrahydroisoquinoline] | approximately two-fold | – | – | – | –
3 | COc1cc2c3c(c1OC)-c1cc4c(cc1CC3N(C)CC2)OCO4 (stereo not drawn) [Nantenine (8), nantenine] | – | 4.73 | mixed inhibition | showed activity | inactive
